This passage reports IC50 results from patent US8329904B2, “Azacyclic derivatives” (Hoffmann-La Roche Inc., priority 2009, dated 2012).

For the test, the target named is T1, human HSL (Homo sapiens, UniProt Q05469).
T1 construct: overlapping PCR to generate a full length human HSL ORF with a 3′-His6 tag; His6 (C); made in house; host or cells: High 5 insect cells (baculovirus, pFast-BAC)
T1 sequence (Q05469 1-1076): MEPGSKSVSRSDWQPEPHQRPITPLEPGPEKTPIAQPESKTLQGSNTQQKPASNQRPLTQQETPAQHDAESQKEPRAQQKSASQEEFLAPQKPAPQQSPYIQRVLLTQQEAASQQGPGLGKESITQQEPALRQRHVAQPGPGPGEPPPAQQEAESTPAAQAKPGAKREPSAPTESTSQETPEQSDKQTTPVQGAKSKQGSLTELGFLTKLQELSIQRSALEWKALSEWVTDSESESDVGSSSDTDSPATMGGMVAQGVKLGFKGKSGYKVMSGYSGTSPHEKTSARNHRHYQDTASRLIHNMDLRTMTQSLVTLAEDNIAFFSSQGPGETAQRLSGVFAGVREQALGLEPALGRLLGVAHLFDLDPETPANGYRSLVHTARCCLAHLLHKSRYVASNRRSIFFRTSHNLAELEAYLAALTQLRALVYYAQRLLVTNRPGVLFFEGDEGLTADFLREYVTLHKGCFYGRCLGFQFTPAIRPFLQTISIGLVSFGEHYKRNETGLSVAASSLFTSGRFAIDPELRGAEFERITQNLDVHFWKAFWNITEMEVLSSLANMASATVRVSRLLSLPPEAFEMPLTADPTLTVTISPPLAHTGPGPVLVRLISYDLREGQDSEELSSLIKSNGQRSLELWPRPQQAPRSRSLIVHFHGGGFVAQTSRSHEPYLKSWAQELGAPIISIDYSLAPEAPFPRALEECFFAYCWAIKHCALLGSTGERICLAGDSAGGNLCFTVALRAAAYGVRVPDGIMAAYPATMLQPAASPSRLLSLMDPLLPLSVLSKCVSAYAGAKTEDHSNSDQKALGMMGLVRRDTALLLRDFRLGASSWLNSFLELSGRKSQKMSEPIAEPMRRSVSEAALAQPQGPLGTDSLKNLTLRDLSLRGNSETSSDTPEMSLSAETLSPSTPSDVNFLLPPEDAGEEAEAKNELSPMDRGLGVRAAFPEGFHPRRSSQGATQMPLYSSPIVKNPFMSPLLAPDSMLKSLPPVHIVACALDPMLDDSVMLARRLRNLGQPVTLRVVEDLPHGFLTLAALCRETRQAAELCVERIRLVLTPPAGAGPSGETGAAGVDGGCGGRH
Description: Human Hormone-Sensitive Lipase (HSL) Enzyme Inhibition Assay. The note with it: colorimetric assay, 2,3-dimercapto-1-propanol tributyrate (DMPT) substrate, 37° C. for 20 minutes, absorbance at 405 nm; read-out: HSL hum IC50. The test is classed as biochemical. The procedure: Production of Human Full Length Hormone Sensitive Lipase-His^6
1) Cloning: cDNA was prepared from commercial human brain polyA-+ RNA and used as a template in overlapping PCR to generate a full length human HSL ORF with a 3′-His6 tag. This full length insert was cloned into the pFast-BAC vector and the DNA-sequence of several single clones was verified. DNA from a correct full length clone with the 3′His6 tag was used to transform the E. coli strain DH10BAC. Resulting bacmid DNA was used to generate a titered baculovirus stock for protein generation.
Cells were thawed. […] was done at 3×30 sec., Lubrol PX was added to 0.2% final concentration followed by stirring for 15 min. at 4° C. and centrifugation at 25 k×g, 60 min., 4° C. […] Supernatant was removed, the resin washed in the centrifuge vessel using 5 volumes of Base Buffer containing 0.2% Lubrol PX. Centrifugation was done again, then the supernatant discarded. The resin wass poured onto a 0.8 μm membrane in a disposable filter unit (Nalge 450-0080), and washed with 5 volumes of Base Buffer containing 0.2% Lubrol PX. It was then washed with 30 volumes of Base Buffer containing 60 mM imidazole pH 7.5 at 4° C. The protein was eluated with 5 volumes of 25 mM Tris-Cl, 300 mM NaCl, 200 mM imidazole, 10 mM 2-mercaptoethanol, pH 7.5 at 4° C. by tumbling resin with buffer end-over-end, 30 min., 4° C. The resin was captured on a 0.2 μm membrane disposable filter unit (Millipore SCGP U02 RE) and the eluate collected in the reservoir. The eluate was concentrated using a 30 k MWCO centrifugal filter device (Sartorius Vivascience Vivacell 100, VC1022), to 20 ml. It was then dialyzed overnight at 4° C., two times against 2 L of 10% glycerol, 25 mM Tris-Cl, 300 mM NaCl, 0.2 mM EDTA, 0.2 mM DTT, pH 7.5 at 4° C. The protein was filtered using a 0.22 μm disposable filter unit (Millipore SCGP00525). The protein concentration was calculated from absorbance at 280 nm, using 280=0.67 cm-1 mg-1. […] The protein was stored at −80° C.
Human Hormone-Sensitive Lipase (HSL) Enzyme Inhibition Assay:
HSL enzyme activity was measured by a colorimetric assay using 2,3-dimercapto-1-propanol tributyrate (Aldrich, St. Louis, Mo.) as a substrate. Typically, 1.5 mM 2,3-dimercapto-1-propanol tributyrate (DMPT) in 100 mM MOPS, pH 7.2, 0.2 mg/ml fatty acid-free BSA was prepared by sonication at 4° C. to homogenous suspension. Test compounds (2 mM stock in DMSO) were diluted 3 fold in series in DMSO. Compound solutions were diluted 24 fold in 1.5 mM DMPT containing solution and 18 ul per well was added to 384-well microplates (Corning Costar). Twelve microliters per well of human HSL (15 ug/ml) was added and the reaction mixture was incubated at 37° C. for 20 minutes. Six microliters of 12 mM dithio-bis-(2-nitrobenzoic acid) (DTNB) in DMSO plus 1.2% SDS and 0.6% Triton X-100 were added and the mixture was incubated at room temperature for 15 minutes. Product production was monitored by reading absorbance at 405 nm on an Envision Reader (PerkinElmer Life and Analytical Sciences, Shelton, Conn.).

In the case of `CC(Oc1ccc(N2CCC3(CCN(S(=O)(=O)c4ccccc4)CC3)C2=O)cc1)C(F)(F)F` (racemic) [Example 4, (rac)-8-Benzenesulfonyl-2-[4-(2,2,2-trifluoro-1-methyl-ethoxy)-phenyl]-2,8-diaza-piro[4.5]decan-1-one], the IC50 – broadly, the concentration needed to halve the response being measured – worked out at 20 nM.
Take `CC(Oc1ccc(N2CCC3(CCN(S(=O)(=O)CC(C)(C)C)CC3)C2=O)cc1)C(F)(F)F` (racemic) [Example 22, (rac)-8-(2,2-Dimethyl-propane-1-sulfonyl)-2-[4-(2,2,2-trifluoro-1-methyl-ethoxy)-phenyl]-2,8-diaza-spiro[4.5]decan-1-one]: the 50% inhibitory concentration (IC50) is 130 nM.
In the case of `CC(Oc1ccc(N2CCC3(CCN(S(=O)(=O)c4ccccc4)CC3)C2=O)cn1)C(F)(F)F` (racemic) [Example 25, (rac)-8-Benzenesulfonyl-2-[6-(2,2,2-trifluoro-1-methyl-ethoxy)-pyridin-3-yl]-2,8-diaza-spiro[4.5]decan-1-one], the IC50 came to 50 nM.
In the case of `CC(Oc1ccc(N2CCC3(CCN(S(=O)(=O)c4ccccc4Cl)CC3)C2=O)cn1)C(F)(F)F` (racemic) [Example 114, 8-(2-Chloro-benzenesulfonyl)-2-[6-(2,2,2-trifluoro-1-methyl-ethoxy)-pyridin-3-yl]-2,8-diaza-spiro[4.5]decan-1-one (rac)], the IC50 stood at 50 nM.
For `Cc1noc(C)c1S(=O)(=O)N1CCC2(CCN(c3ccc(C(O)C(F)(F)F)cc3)C2=O)CC1` (racemic) [Example 162, (rac)-8-(3,5-Dimethyl-isoxazole-4-sulfonyl)-2-[4-(2,2,2-trifluoro-1-hydroxy-ethyl)-phenyl]-2,8-diaza-spiro[4.5]decan-1-one], the concentration for half-maximal inhibition (IC50) was 120 nM.
In the case of `O=C1N(c2ccc(C(O)C(F)F)cc2)CCC12CCN(S(=O)(=O)c1ccccc1C(F)(F)F)CC2` (racemic) [Example 176, (rac)-2-(4-(2,2-difluoro-1-hydroxyethyl)phenyl)-8-(2-(trifluoromethyl)phenylsulfonyl)-2,8-diazaspiro[4.5]decan-1-one] it was 40 nM; in that of `O=C1N(c2ccc(OC(F)(F)F)cc2)CCC12CCN(S(=O)(=O)c1ccccc1Cl)CC2` [Example 1, 8-(2-Chloro-benzenesulfonyl)-2-(4-trifluoromethoxy-phenyl)-2,8-diaza-spiro[4.5]decan-1-one], 30 nM; in that of `O=C1N(c2ccc(OC(F)(F)F)cc2)CCC12CCN(S(=O)(=O)c1ccccc1)CC2` [Example 2, 8-Benzenesulfonyl-2-(4-trifluoromethoxy-phenyl)-2,8-diaza-spiro[4.5]decan-1-one], 40 nM.
In the case of `CC(C)(C)c1ccc(N2CCC3(CCN(S(=O)(=O)c4ccccc4)CC3)C2=O)cc1` [Example 3, 8-Benzenesulfonyl-2-(4-tert-butyl-phenyl)-2,8-diaza-spiro[4.5]decan-1-one], the IC50 was 30 nM.
For `CC(C)(Oc1ccc(N2CCC3(CCN(S(=O)(=O)c4ccccc4)CC3)C2=O)cc1)C(F)(F)F` [Example 5, 8-Benzenesulfonyl-2-[4-(2,2,2-trifluoro-1,1-dimethyl-ethoxy)-phenyl]-2,8-diaza-spiro[4.5]decan-1-one], the IC50 came to 40 nM.
In the case of `CC(C)Oc1ccc(N2CCC3(CCN(S(=O)(=O)c4ccccc4)CC3)C2=O)cc1` [Example 6, 8-Benzenesulfonyl-2-(4-isopropoxy-phenyl)-2,8-diaza-spiro[4.5]decan-1-one] it was 40 nM; in that of `CC(C)(C)CC(=O)N1CCC2(CC1)CCN(c1ccc(OC(F)(F)F)cc1)C2=O` [Example 7, 8-(3,3-Dimethyl-butyryl)-2-(4-trifluoromethoxy-phenyl)-2,8-diaza-spiro[4.5]decan-1-one], 60 nM; in that of `O=C1N(c2ccc(OC(F)(F)F)cc2)CCC12CCN(S(=O)(=O)N1CCOCC1)CC2` [Example 8, 8-(Morpholine-4-sulfonyl)-2-(4-trifluoromethoxy-phenyl)-2,8-diaza-spiro[4.5]decan-1-one], 90 nM.
For `O=C1N(c2ccc(OC(F)(F)F)cc2)CCCC12CCN(S(=O)(=O)c1ccccc1)CC2` [Example 9, 9-Benzenesulfonyl-2-(4-trifluoromethoxy-phenyl)-2,9-diaza-spiro[5.5]undecan-1-one], the 50% inhibitory concentration (IC50) came to 50 nM.
For the compound `CC(C)c1ccc(N2CCC3(CCN(S(=O)(=O)c4ccccc4)CC3)C2=O)cn1` [Example 10, 8-Benzenesulfonyl-2-(6-isopropyl-pyridin-3-yl)-2,8-diaza-spiro[4.5]decan-1-one], the IC50 was 130 nM.
In the case of `O=C1N(c2ccc(Cl)nc2)CCC12CCN(S(=O)(=O)c1ccccc1)CC2` [Example 11, 8-Benzenesulfonyl-2-(6-chloro-pyridin-3-yl)-2,8-diaza-spiro[4.5]decan-1-one] it was 1700 nM; in that of `O=C1N(c2cccnc2)CCC12CCN(S(=O)(=O)c1ccccc1)CC2` [Example 12, 8-Benzenesulfonyl-2-pyridin-3-yl-2,8-diaza-spiro[4.5]decan-1-one], 26000 nM.
Regarding `O=C(CCC1CC1)N1CCC2(CC1)CCN(c1ccc(OC(F)(F)F)cc1)C2=O` [Example 13, 8-(3-Cyclopropyl-propionyl)-2-(4-trifluoromethoxy-phenyl)-2,8-diaza-spiro[4.5]decan-1-one], the IC50 turned out to be 150 nM.
`CC(C)(C)CCC(=O)N1CCC2(CC1)CCN(c1ccc(OC(F)(F)F)cc1)C2=O` [Example 14, 8-(4,4-Dimethyl-pentanoyl)-2-(4-trifluoromethoxy-phenyl)-2,8-diaza-spiro[4.5]decan-1-one]: the IC50 came out at 170 nM.
With `CC(C)Oc1ccc(N2CCC3(CCN(S(=O)(=O)N4CCOCC4)CC3)C2=O)cc1` [Example 15, 2-(4-Isopropoxy-phenyl)-8-(morpholine-4-sulfonyl)-2,8-diaza-spiro[4.5]decan-1-one], the IC50 amounted to 360 nM.
In the case of `COc1ccc(N2CCC3(CCN(S(=O)(=O)c4ccccc4)CC3)C2=O)nn1` [Example 16, 8-Benzenesulfonyl-2-(6-methoxy-pyridazin-3-yl)-2,8-diaza-spiro[4.5]decan-1-one] it was 15000 nM.
